EP4122499A1, “FIBROBLAST ACTIVATION PROTEIN INHIBITORS AND USE THEREOF” (3B Pharmaceuticals GmbH, priority 2021, dated 2023)

How the values were obtained:
Assay type in all cases: biochemical
[1] = biological target: T1, Recombinant mouse FAP (Mus musculus, UniProt P97321); assay: FRET-based FAP protease activity assay (mouse); details: FRET-peptide substrate, 37°C; for IC50: read-out: pIC50 (mouseFAP) (converted)
T1 construct: purchased R&D systems 8647-SE
T1 sequence (P97321 1-761): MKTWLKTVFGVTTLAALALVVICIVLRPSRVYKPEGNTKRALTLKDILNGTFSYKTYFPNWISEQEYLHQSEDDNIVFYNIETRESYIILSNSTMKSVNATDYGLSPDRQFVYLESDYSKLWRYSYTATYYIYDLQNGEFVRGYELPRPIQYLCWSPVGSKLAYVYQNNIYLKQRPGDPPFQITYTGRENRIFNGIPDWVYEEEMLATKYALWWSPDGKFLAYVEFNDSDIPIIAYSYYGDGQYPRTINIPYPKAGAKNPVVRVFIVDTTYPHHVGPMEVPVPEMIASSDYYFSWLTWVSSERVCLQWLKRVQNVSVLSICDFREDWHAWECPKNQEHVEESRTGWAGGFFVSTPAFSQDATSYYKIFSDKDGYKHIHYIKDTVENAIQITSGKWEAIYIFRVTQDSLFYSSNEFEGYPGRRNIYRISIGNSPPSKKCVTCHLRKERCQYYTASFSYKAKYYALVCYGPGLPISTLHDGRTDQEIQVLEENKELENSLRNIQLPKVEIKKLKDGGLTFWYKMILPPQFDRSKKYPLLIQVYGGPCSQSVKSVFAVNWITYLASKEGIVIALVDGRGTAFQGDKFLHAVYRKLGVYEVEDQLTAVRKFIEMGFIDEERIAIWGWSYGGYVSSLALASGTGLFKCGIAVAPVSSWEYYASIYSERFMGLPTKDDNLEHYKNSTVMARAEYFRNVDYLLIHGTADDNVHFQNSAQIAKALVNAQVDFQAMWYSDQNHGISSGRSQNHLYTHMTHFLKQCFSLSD
Procedure: In order to determine the inhibitory activity a FRET-based FAP protease activity assay was established.
25 µL of a 30 µM substrate solution, diluted in assay buffer, was added. […] Four parameter logistic (4PL) curve fitting and pIC50 calculations were performed using ActivityBase software.

[2] = biological target: T2, recombinant human PREP (Homo sapiens, UniProt P48147); assay: PREP protease activity assay; details: 50 µM Z-GP-AMC substrate
T2 construct: purchased R&D systems 4308-SE
T2 sequence (P48147 1-710): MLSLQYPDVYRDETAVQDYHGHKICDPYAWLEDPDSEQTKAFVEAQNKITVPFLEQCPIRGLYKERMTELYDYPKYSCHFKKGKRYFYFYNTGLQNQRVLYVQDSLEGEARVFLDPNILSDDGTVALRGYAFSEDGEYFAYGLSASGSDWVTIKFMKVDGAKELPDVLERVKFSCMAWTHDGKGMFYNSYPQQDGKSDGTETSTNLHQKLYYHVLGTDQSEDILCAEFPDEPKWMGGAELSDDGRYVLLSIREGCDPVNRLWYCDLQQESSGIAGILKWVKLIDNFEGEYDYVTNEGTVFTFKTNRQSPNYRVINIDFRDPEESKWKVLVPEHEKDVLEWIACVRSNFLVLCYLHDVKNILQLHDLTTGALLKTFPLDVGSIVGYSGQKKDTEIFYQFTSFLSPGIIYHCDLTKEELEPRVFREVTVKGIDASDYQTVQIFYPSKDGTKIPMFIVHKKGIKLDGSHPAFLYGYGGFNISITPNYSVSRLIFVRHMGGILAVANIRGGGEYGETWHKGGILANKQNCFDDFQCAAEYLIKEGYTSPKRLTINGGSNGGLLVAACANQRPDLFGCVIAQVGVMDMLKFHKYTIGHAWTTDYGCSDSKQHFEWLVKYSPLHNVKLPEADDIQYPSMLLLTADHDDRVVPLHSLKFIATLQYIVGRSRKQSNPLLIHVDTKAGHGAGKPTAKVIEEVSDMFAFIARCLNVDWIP
Procedure: (§1) The PREP activity assay was performed using the FACS buffer (PBS including 1% FBS, Sigma-Aldrich, Cat# D8537). […] The DPP4 activity assay was performed in DPP assay buffer (25 mM Tris, pH 8.0).
(§2) Four parameter logistic (4PL) curve fitting and pIC50 calculations were performed using ActivityBase software.

[3] = biological target: T3, Recombinant human DPP4 (Homo sapiens, UniProt P27487); assay: DPP4 protease activity assay; details: 20 µM GP-AMC substrate; for IC50: read-out: pIC50 (DPP4) (converted)
T3 construct: purchased R&D systems 9168-SE
T3 sequence (P27487 whole entry): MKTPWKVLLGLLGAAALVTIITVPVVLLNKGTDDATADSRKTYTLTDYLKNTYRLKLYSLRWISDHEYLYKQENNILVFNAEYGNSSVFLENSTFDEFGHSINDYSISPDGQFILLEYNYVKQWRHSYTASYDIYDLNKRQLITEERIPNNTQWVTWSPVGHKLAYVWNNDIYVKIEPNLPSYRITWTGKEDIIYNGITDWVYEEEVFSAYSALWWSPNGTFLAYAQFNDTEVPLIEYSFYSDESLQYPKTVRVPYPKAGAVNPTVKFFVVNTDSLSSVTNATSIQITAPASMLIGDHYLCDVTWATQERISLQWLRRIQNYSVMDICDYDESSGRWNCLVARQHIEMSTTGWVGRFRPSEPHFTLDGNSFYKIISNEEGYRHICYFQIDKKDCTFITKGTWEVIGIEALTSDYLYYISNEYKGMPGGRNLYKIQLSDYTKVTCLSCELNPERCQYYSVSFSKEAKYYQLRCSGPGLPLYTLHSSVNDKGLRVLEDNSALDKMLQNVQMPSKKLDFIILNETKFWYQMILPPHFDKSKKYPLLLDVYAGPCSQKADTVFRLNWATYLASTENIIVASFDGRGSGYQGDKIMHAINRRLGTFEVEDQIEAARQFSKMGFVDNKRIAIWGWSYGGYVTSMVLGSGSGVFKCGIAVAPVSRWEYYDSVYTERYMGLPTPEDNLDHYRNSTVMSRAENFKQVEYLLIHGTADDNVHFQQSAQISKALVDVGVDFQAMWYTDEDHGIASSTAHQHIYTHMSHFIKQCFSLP
Procedure: as §1, §2

| Compound | pIC50 (mouseFAP) [1] | pIC50 (PREP) [2] | pIC50 (DPP4) [3] | IC50 [2] | IC50 [3] | IC50 [1] |
| --- | --- | --- | --- | --- | --- | --- |
| O=C(O)CN1CCN(CC(=O)O)CCN(CC(=O)N2CCN(CCCOc3ccc4nccc(C(=O)NCC(=O)N5C[C@@H](F)C[C@H]5C(=O)c5nc6ccccc6o5)c4c3)CC2)CCN(CC(=O)O)CC1 [drawing 358] | 8.5 | 7.8 | <6 | – | – | – |
| N#C[C@@H]1CC(F)(F)CN1C(=O)CNC(=O)c1ccnc2ccc(-c3ccc(S(=O)(=O)CCCNC(=O)CN4CCN(CC(=O)O)CCN(CC(=O)O)CCN(CC(=O)O)CC4)cc3)cc12 | 9 | <6 | 6.7 | – | – | – |
| CS(=O)(=O)c1cccc(-c2ccc3nccc(C(=O)NCC(=O)N4CCC[C@H]4C#N)c3c2)c1 | – | – | – | > 1000 nM | > 1000 nM | – |
| O=C(O)CN1CCN(CC(=O)O)CCN(CC(=O)N2CCN(CCNC(=O)c3ccc(-c4ccc5nccc(C(=O)NCC(=O)N6CCC[C@H]6C(=O)c6nc7ccccc7o6)c5c4)cn3)CC2)CCN(CC(=O)O)CC1 [drawing 361] | 7.8 | 7.9 | <6 | – | – | – |
| O=C(O)CN1CCN(CC(=O)O)CCN(CC(=O)NCCCNC(=O)c2ccc(-c3ccc4nccc(C(=O)NCC(=O)N5CCC[C@H]5C(=O)c5nc6ccccc6o5)c4c3)cc2)CCN(CC(=O)O)CC1 | 8.7 | 8.2 | <6 | – | – | – |
| O=C(NCC(=O)N1CCC[C@H]1C(=O)c1ncco1)c1ccnc2ccccc12 [drawing 297] | – | – | – | 0.631 nM | > 1000 nM | – |
| O=C(O)CN1CCN(CC(=O)O)CCN(CC(=O)NCCCNC(=O)c2ccc(-c3ccc4nccc(C(=O)NCC(=O)N5CCC[C@H]5B(O)O)c4c3)cc2)CCN(CC(=O)O)CC1 | 8.5 | 8.2 | <6 | – | – | – |
| CS(=O)(=O)c1cccc(-c2ccc3nccc(C(=O)NCC(=O)N4CC(F)(F)C[C@H]4C#N)c3c2)c1 [drawing 288] | – | – | – | > 1000 nM | 794 nM | 1 nM |
| CS(=O)(=O)c1cccc(-c2ccc3c(C(=O)NCC(=O)N4CCC[C@H]4C#N)ccnc3c2)c1 | – | – | – | > 1000 nM | > 1000 nM | – |
| CS(=O)(=O)c1ccc(-c2ccc3nccc(C(=O)NCC(=O)N4CC(F)(F)C[C@H]4C#N)c3c2)cc1 | – | – | – | > 1000 nM | > 1000 nM | 0.794 nM |
| N#C[C@@H]1CC(F)(F)CN1C(=O)CNC(=O)c1ccnc2ccc(-c3ccc(C(=O)NCCCNC(=O)CN4CCN(CC(=O)O)CCN(CC(=O)O)CCN(CC(=O)O)CC4)cc3)cc12 | 9.2 | – | <6 | – | – | – |
| O=C(NCC(=O)N1CCC[C@H]1C(=O)c1nc2ccccc2s1)c1ccnc2ccccc12 | – | – | – | 15.8 nM | > 1000 nM | – |
| N#C[C@@H]1CC(F)(F)CN1C(=O)CNC(=O)c1ccnc2ccc(-c3ccc(C(=O)NCCN4CCN(C(=O)CN5CCN(CC(=O)O)CCN(CC(=O)O)CCN(CC(=O)O)CC5)CC4)cc3)cc12 | 8.9 | <6 | <6 | – | – | – |
| O=C(NCC(=O)N1CCC[C@H]1C(=O)c1nccs1)c1ccnc2ccccc12 | – | – | – | 25.1 nM | > 1000 nM | – |
| N#C[C@@H]1CCCN1C(=O)CNC(=O)c1ccnc2ccc(-c3ccc(C(=O)NCCCNC(=O)CN4CCN(CC(=O)O)CCN(CC(=O)O)CCN(CC(=O)O)CC4)cc3)cc12 | 9 | – | <6 | – | – | – |
| O=C(O)CN1CCN(CC(=O)O)CCN(CC(=O)N2CCN(CCNC(=O)c3cccc(-c4ccc5nccc(C(=O)NCC(=O)N6CCC[C@H]6C(=O)c6nc7ccccc7o6)c5c4)c3)CC2)CCN(CC(=O)O)CC1 [drawing 353] | 8.6 | 7.8 | <6 | – | – | – |
| O=C(O)CN1CCN(CC(=O)O)CCN(CC(=O)N2CCN(CCNC(=O)c3ccc(-c4ccc5nccc(C(=O)NCC(=O)N6CCC[C@H]6C(=O)c6nc7ccccc7o6)c5c4)cc3)CC2)CCN(CC(=O)O)CC1 [drawing 354] | 8.1 | 8.2 | <6 | – | – | – |
| O=C(O)CN1CCN(CC(=O)O)CCN(CC(=O)N2CCN(CCNC(=O)c3ccc(-c4ccc5c(C(=O)NCC(=O)N6CCC[C@H]6C(=O)c6nc7ccccc7o6)ccnc5c4)cc3)CC2)CCN(CC(=O)O)CC1 [drawing 355] | 8.8 | 8.7 | <6 | – | – | – |
| O=C(O)CN1CCN(CC(=O)O)CCN(CC(=O)N2CCN(CCNC(=O)c3ccc(-c4ccc5nccc(C(=O)NCC(=O)N6C[C@@H](F)C[C@H]6C(=O)c6nc7ccccc7o6)c5c4)cc3)CC2)CCN(CC(=O)O)CC1 [drawing 360] | 7.9 | 7.3 | <6 | – | – | – |
| O=C(NCC(=O)N1CCC[C@H]1C(=O)c1nc2ccccc2o1)c1ccnc2ccccc12 | – | – | – | 1 nM | > 1000 nM | 2 nM |
| CC(C)(C)c1nnc(C(=O)[C@@H]2CCCN2C(=O)CNC(=O)c2ccnc3ccccc23)o1 | – | – | – | 1.26 nM | > 1000 nM | 3.98 nM |
| N#C[C@@H]1CC(F)(F)CN1C(=O)CNC(=O)c1cc[n+]([O-])c2ccc(OCCCN3CCN(C(=O)CN4CCN(CC(=O)O)CCN(CC(=O)O)CCN(CC(=O)O)CC4)CC3)cc12 | 8.8 | – | <6 | – | – | – |
| O=C(O)CN1CCN(CC(=O)O)CCN(CC(=O)N2CCN(CCCOc3ccc4nccc(C(=O)NCC(=O)N5CCC[C@H]5C(=O)c5nc6ccccc6o5)c4c3)CC2)CCN(CC(=O)O)CC1 [drawing 357] | 8.5 | 8.6 | <6 | – | – | – |
| O=C(O)CN1CCN(CC(=O)O)CCN(CC(=O)N2CCN(CCCOc3ccc4nccc(C(=O)NCC(=O)N5CC(F)(F)C[C@H]5C(=O)c5nc6ccccc6o5)c4c3)CC2)CCN(CC(=O)O)CC1 | 8.3 | 6.7 | <6 | – | – | – |
| CS(=O)(=O)c1ccc(-c2ccc3c(C(=O)NCC(=O)N4CCC[C@H]4C#N)ccnc3c2)cc1 [drawing 290] | – | – | – | 794 nM | > 1000 nM | – |
| N#C[C@@H]1CC(F)(F)CN1C(=O)CNC(=O)c1ccnc2ccc(-c3ccc(C(=O)NCCCNC(=O)CN4CCN(CC(=O)O)CCN(CC(=O)O)CCN(CC(=O)O)CC4)nc3)cc12 | 8.8 | <6 | <6 | – | – | – |
| CS(=O)(=O)c1ccc(-c2ccc3nccc(C(=O)NCC(=O)N4CCC[C@H]4C#N)c3c2)cc1 | – | – | – | > 1000 nM | > 1000 nM | – |
| O=C(O)CN1CCN(CC(=O)O)CCN(CC(=O)N2CCN(CCNC(=O)c3cccc(-c4ccc5c(C(=O)NCC(=O)N6CCC[C@H]6C(=O)c6nc7ccccc7o6)ccnc5c4)c3)CC2)CCN(CC(=O)O)CC1 [drawing 352] | 8.9 | 8.4 | <6 | – | – | – |
| CS(=O)(=O)c1cccc(-c2ccc3c(C(=O)NCC(=O)N4CC(F)(F)C[C@H]4C#N)ccnc3c2)c1 [drawing 289] | – | – | – | > 1000 nM | > 1000 nM | 1.26 nM |
